Earlier results, collected in publication PMC10215804, “Exploring Alternative Pathways to Target Bacterial Type II Topoisomerases Using NBTI Antibacterials: Beyond Halogen-Bonding Interactions” (Antibiotics, 2023).
Values after ≈ are worked out from the molar mass of the structure shown.

Key:
MRSA (QA-11.2) = tested on: MRSA (QA-11.2); design: method as in PMID 35970069; details: cited from earlier work
MRSA (QA-11.7) = details: cited from earlier work
human topoisomerase IIα = biological target: T1, human topoisomerase IIα (Homo sapiens, UniProt P11388); details: residual activity at 100 µM compound; cited from earlier work
T1 construct: purchased Inspiralis (Norwich, UK)
T1 sequence (P11388 whole entry): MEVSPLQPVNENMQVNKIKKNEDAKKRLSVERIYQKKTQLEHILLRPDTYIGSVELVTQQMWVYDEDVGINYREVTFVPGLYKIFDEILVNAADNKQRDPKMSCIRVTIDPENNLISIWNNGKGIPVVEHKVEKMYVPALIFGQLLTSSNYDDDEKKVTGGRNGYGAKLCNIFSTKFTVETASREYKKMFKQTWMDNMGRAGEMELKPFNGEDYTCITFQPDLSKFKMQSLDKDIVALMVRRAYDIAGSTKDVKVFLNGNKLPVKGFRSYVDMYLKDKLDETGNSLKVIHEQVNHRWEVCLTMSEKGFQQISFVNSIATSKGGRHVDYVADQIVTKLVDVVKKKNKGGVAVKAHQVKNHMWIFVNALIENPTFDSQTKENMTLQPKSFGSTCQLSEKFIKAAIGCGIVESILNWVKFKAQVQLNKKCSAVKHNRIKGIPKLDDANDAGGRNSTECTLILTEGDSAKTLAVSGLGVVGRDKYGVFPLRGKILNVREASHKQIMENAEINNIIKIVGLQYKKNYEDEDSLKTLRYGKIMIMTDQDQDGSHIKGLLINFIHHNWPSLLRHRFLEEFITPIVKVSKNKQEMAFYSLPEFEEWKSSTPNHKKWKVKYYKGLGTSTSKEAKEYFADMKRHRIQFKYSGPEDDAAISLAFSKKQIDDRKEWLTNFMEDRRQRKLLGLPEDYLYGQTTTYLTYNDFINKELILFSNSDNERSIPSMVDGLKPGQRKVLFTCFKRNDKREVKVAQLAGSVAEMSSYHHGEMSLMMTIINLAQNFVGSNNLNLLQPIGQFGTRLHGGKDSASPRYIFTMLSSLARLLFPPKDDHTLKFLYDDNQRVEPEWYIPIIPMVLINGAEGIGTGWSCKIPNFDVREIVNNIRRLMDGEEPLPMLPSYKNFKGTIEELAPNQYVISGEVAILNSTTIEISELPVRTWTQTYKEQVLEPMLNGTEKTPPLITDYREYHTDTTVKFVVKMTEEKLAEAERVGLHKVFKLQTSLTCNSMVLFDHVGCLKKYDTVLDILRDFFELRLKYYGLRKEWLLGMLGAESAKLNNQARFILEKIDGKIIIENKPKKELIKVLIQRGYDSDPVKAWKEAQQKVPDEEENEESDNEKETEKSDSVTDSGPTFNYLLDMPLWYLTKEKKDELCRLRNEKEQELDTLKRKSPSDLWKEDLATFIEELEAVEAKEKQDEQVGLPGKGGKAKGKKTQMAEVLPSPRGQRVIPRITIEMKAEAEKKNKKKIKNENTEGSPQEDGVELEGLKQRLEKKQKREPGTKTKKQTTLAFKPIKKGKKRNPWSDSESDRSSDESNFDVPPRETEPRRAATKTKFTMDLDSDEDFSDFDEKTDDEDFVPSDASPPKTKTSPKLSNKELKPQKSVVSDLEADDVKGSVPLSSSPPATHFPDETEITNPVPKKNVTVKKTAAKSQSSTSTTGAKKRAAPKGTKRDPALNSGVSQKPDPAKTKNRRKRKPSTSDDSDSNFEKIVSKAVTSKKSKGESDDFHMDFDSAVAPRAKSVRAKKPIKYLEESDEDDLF

E. coli DNA gyrase = biological target: T2, E. coli DNA gyrase (Escherichia coli, UniProt P0AES4); details: supercoiling inhibition; cited from earlier work
T2 construct: purchased Inspiralis (Norwich, UK)

S. aureus topoIV = biological target: T3, S. aureus topoIV (Staphylococcus aureus, UniProt P0C1U9); details: relaxation inhibition; cited from earlier work
T3 construct: purchased Inspiralis (Norwich, UK)

VRE = details: cited from earlier work
E. coli topoIV = biological target: T4, E. coli topoIV (Escherichia coli, UniProt P0AFI2); details: relaxation inhibition; cited from earlier work
T4 construct: purchased Inspiralis (Norwich, UK)
T4 sequence (P20083 whole entry): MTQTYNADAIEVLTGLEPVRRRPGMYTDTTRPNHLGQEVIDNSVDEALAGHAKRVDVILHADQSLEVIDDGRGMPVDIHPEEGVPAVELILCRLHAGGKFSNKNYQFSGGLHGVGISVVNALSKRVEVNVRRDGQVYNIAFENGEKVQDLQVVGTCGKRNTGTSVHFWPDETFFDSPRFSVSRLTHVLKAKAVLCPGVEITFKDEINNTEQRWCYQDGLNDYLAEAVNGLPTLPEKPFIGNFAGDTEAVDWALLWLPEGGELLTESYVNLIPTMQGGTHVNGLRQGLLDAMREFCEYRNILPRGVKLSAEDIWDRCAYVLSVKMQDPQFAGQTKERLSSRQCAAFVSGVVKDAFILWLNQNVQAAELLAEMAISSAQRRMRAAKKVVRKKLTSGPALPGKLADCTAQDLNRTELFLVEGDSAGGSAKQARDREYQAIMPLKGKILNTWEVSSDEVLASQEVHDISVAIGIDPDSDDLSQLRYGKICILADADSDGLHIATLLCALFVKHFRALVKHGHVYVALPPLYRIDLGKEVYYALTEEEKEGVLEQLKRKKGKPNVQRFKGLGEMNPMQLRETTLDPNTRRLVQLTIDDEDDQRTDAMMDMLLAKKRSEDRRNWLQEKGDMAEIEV
T4 sequence (P0AFI2 whole entry): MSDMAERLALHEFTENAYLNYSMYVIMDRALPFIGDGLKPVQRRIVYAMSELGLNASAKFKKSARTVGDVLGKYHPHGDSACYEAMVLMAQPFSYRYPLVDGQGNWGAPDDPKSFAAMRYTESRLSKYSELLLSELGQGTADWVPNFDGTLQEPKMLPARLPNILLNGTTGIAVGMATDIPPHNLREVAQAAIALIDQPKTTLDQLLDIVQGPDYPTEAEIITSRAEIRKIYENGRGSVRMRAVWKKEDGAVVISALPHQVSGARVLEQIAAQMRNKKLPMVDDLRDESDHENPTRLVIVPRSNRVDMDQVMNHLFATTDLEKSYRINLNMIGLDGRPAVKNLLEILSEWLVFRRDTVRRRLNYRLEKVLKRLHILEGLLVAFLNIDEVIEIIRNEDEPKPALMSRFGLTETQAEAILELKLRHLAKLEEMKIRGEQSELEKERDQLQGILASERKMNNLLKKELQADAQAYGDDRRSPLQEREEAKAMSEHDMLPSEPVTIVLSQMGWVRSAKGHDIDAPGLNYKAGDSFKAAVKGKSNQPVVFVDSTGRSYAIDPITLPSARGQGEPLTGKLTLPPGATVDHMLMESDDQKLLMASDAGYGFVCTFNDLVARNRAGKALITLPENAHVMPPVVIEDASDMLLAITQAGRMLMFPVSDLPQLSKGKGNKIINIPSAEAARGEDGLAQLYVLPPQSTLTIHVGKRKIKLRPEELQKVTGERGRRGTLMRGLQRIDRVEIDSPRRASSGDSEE

S. aureus DNA gyrase = biological target: T5, S. aureus DNA gyrase (Staphylococcus aureus, UniProt P20831); details: supercoiling inhibition; cited from earlier work
T5 construct: purchased Inspiralis (Norwich, UK)
T5 sequence (P20831 whole entry): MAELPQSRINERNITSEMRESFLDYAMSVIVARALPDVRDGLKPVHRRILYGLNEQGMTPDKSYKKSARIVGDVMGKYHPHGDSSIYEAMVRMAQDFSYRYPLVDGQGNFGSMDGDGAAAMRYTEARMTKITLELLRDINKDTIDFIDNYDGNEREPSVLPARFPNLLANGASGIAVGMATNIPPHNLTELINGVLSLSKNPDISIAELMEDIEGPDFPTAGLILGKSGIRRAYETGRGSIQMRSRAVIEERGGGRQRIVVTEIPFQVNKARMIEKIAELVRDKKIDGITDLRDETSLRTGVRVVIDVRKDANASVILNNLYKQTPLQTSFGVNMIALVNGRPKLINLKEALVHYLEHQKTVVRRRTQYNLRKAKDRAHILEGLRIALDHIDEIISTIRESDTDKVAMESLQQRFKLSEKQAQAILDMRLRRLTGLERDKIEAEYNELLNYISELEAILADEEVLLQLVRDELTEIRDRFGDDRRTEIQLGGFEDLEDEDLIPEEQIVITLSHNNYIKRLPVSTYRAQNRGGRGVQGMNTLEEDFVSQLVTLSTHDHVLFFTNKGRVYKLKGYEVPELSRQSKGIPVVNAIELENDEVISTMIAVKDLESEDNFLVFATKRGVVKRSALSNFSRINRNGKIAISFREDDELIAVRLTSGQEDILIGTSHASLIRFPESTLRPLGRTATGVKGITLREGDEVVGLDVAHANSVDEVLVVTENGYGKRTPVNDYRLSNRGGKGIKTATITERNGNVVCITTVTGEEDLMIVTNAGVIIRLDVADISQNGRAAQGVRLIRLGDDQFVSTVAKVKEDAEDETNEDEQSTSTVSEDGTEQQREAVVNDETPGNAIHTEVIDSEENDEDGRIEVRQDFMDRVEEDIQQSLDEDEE
T5 sequence (P0A0K8 whole entry partner): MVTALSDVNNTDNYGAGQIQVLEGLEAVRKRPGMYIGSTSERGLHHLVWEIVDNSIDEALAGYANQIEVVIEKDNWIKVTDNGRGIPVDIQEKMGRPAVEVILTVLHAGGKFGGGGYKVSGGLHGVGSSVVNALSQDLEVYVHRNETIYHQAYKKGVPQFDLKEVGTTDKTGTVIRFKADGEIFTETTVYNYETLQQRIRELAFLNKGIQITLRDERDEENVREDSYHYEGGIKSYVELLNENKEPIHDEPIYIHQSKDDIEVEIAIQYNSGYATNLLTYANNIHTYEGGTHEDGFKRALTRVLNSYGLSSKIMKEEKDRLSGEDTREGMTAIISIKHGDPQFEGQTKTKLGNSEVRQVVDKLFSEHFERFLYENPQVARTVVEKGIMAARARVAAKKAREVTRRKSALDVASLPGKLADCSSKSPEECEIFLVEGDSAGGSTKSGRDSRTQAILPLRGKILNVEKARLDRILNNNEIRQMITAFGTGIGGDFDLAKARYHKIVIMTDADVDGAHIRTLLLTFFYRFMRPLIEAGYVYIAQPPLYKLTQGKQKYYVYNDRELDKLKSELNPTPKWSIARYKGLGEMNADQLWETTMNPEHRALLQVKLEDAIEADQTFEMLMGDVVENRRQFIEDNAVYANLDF

E. coli (ATCC 25922) = details: cited from earlier work
A. baumannii = tested on: A. baumannii; design: method as in PMID 35970069; details: cited from earlier work
MRSA(QA-12.1) = tested on: MRSA(QA-12.1); design: method as in PMID 35970069; details: cited from earlier work
K. pneumoniae = tested on: K. pneumoniae; design: method as in PMID 35970069; details: cited from earlier work
P. aeruginosa RDK 184 = details: cited from earlier work
E. coli D22 = details: lpxC mutation; cited from earlier work
E. coli ESBL QA-11.3 = tested on: E. coli ESBL QA-11.3; design: method as in PMID 35970069; details: cited from earlier work
E. coli N43 (CGSC# 5583) = details: AcrA knockout; cited from earlier work
E. faecalis RDK 057 = details: cited from earlier work
S. aureus (ATCC 29213) = details: cited from earlier work

COc1ccc2nccc(C(O)CC3CC[C@H](NCc4ccc(Br)cc4)CO3)c2n1 (stereo partly drawn) [Compound 4]
MIC MRSA (QA-11.2) (MRSA (QA-11.2)): 0.031 µg/mL (≈ 0.0656 µM) | MIC MRSA (QA-11.7) (MRSA (QA-11.7)): 0.016 µg/mL (≈ 0.0339 µM) | Human TopoIIα (% RA at 100 µM) (human topoisomerase IIα): 106 ± 0% | IC50 (E. coli DNA gyrase): 1570 ± 404 nM | IC50 (S. aureus topoIV): > 100000 nM | MIC VRE (VRE): 0.032 µg/mL (≈ 0.0677 µM) | IC50 (E. coli topoIV): 52 ± 3 nM | IC50 (S. aureus DNA gyrase): 65 ± 2 nM | MIC E. coli (ATCC 25922) (E. coli (ATCC 25922)): 16 µg/mL (≈ 33.9 µM) | MIC A. baumannii (A. baumannii): >128 µg/mL | MIC MRSA(QA-12.1) (MRSA(QA-12.1)): 0.016 µg/mL (≈ 0.0339 µM) | MIC K. pneumoniae (K. pneumoniae): 128 µg/mL (≈ 271 µM) | MIC P. aeruginosa RDK 184 (P. aeruginosa RDK 184): 128 µg/mL (≈ 271 µM) | MIC E. coli D22 (E. coli D22): 1 µg/mL (≈ 2.12 µM) | MIC E. coli ESBL QA-11.3 (E. coli ESBL QA-11.3): >128 µg/mL | MIC E. coli N43 (CGSC# 5583) (E. coli N43 (CGSC# 5583)): 0.25 µg/mL (≈ 0.529 µM) | MIC E. faecalis RDK 057 (E. faecalis RDK 057): 0.5 µg/mL (≈ 1.06 µM) | MIC S. aureus (ATCC 29213) (S. aureus (ATCC 29213)): 0.016 µg/mL (≈ 0.0339 µM)
